Drawing on US20210332073A1, “PROCESS FOR THE PREPARATION OF FERRIC CITRATE” (priority 2020, published 2021), this text covers specific surface area for two molecules.

Counter-ions that a name gives are not always drawn.

The data set can be described thus: Specific surface area of isolated ferric citrate. Type of data set: physicochemical. The following applies: vacuum dried at 30-40° C.

On to `O=C1CC2(O)CC(=O)[O][Fe]([O]1)[O]C2=O` [Example-3, ferric citrate], for which the specific surface area entry (Method B: two lots combined, sieve BSS 200/75 micron) is given as “above 16 sq. m/g”.
For the molecule `O=C1CC2(O)CC(=O)[O][Fe]([O]1)[O]C2=O` [Ferric citrate, iron (+3), x (1,2,3-propanetricarboxylic acid, 2-hydroxy-), y (H2O)], the specific surface area entry (Method A step c: acetone dumped in one lot, 20 mesh sieve) is reported as “above 20 m^2/g”.
